Square brackets hold non-standard residues; d marks the D form. Ends that are not written are not given here. Peptide text beside a SMILES is read from it. ξ: configuration not given here. Pro(4-oxo) = O=C1CN[C@H](C(=O)O)C1; cisHyp = O=C(O)[C@@H]1C[C@H](O)CN1; Hyp = O=C(O)[C@@H]1C[C@@H](O)CN1; Ile(3ξ) = CCC(C)[C@H](N)C(=O)O
How the values were obtained:
[1] = system: rats with dry eye syndrome (extraorbital lacrimal gland excision, ELGE); assay: Amount of tear secretion (Schirmer test, cobalt chloride paper) in ELGE rats with dry eye syndrome; assay type: in vivo, rat; settings: for Tear Volumes, Day 7 / Tear Volumes, Day 14: ELGE rats, 3 mg/ml, 5 μl/eye twice daily; for Tear Volumes, Day 7: day 7 of administration; for Tear Volumes, Day 14: day 14 of administration; for Change in amount of tear secretion as compared with the ELGE control group: 3% solution as printed, after administration for 14 days
Outline: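 Dry eye induced in male Sprague-Dawley rats by extraorbital lacrimal gland excision; sham-operated controls. From 7 days post-surgery, 3 mg/ml test compounds in saline given topically at 5 μl/eye twice daily for 14 days. Tear secretion measured on days 7 and 14 as wetted length of cobalt chloride paper held 60 s in the lateral canthus.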

[2] = Stability in aqueous solution under long-term storage conditions (related substances); assay type: physicochemical; settings: 25° C., 75% RH
Outline: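 Test substances dissolved in water at 1 mg/ml, sealed in glass vials and held at 25° C./75% RH. Related substances measured at 1, 2, 4, 8 and 12 weeks.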

[3] = system: cornea of rats with dry eye syndrome (ELGE); assay: Corneal permeability of fluorescent dye (corneal damage) in ELGE rats with dry eye syndrome; assay type: in vivo, rat; settings: 5 μl/eye twice daily, day 14
Outline: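 Dry eye induced in male Sprague-Dawley rats by extraorbital lacrimal gland excision; from day 7, 3 mg/ml compound in saline given at 5 μl/eye twice daily. After 14 doses, rats anaesthetized (Zolethyl 25 mg/kg ip), 1% fluorescein applied 1 h, and corneal staining read 12-24 h later by slit-lamp under blue light.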

[4] = Table 4, study of YDE-001 to YDE-028
[5] = Table 6, study of YDE-001 to YDE-028, 3 mg/ml
[6] = Table 5, study of YDE-029 to YDE-043
[7] = Table 7, study of YDE-029 to YDE-043, 3 mg/ml

Compound	Tear Volumes, Day 7 [1, 4] [mm^3]	Tear Volumes, Day 14 [1, 4] [mm^3]	Amount of related substances (after 12 weeks) [2] [%]	Permeability of fluorescent dye [3, 5] [%]	Tear Volumes, Day 7 [1, 6] [mm^3]	Tear Volumes, Day 14 [1, 6] [mm^3]	Change in amount of tear secretion as compared with the ELGE control group ([1]; study of YDE-029 to YDE-043)	Permeability of fluorescent dye [3, 7] [%]	Change in amount of tear secretion as compared with the ELGE control group ([1]; study of YDE-001 to YDE-028)
CC(C)C[C@H](NC(=O)CNC(=O)[C@H](Cc1cnc[nH]1)NC(=O)[C@H](CCC(N)=O)NC(=O)CNC(=O)[C@@H]1C[C@@H](O)CN1)C(=O)N[C@@H](C)C(=O)NCC(=O)N1CCC[C@H]1C(=O)N[C@@H](CCCCN)C(=O)O [YDE-004] (H-[Hyp]GQHGLAGPK-OH)	3.42 ± 1.06	5.19 ± 1.84	2.11	35.05 ± 11.74					
CC(C)C[C@H](NC(=O)CNC(=O)[C@H](CC(C)C)NC(=O)[C@H](CCC(N)=O)NC(=O)CNC(=O)[C@@H]1C[C@H](O)CN1)C(=O)N[C@@H](C)C(=O)NCC(=O)N1CCC[C@H]1C(=O)N[C@@H](CCCCN)C(=O)O [YDE-034] (H-[cisHyp]GQLGLAGPK-OH)			1.25		6.16 ± 1.01	6.43 ± 1.86	did not show any significant changes	32.17 ± 12.94	
CC(C)C[C@H](NC(=O)[C@H](CCC(N)=O)NC(=O)CNC(=O)[C@@H]1C[C@@H](O)CN1)C(=O)NCC(=O)O [YDE-043] (H-[Hyp]GQLG-OH)			3.43		5.90 ± 1.06	8.16 ± 1.42		19.04 ± 7.36	
CC(C)C[C@H](NC(=O)CNC(=O)[C@H](CC(C)C)NC(=O)[C@H](CCC(N)=O)NC(=O)CNC(=O)[C@@H]1CC(=O)CN1)C(=O)N[C@@H](C)C(=O)NCC(=O)N1CCC[C@H]1C(=O)N[C@@H](CCCCN)C(=O)O [YDE-035] (H-[Pro(4-oxo)]GQLGLAGPK-OH)			3.89		4.96 ± 0.96	6.25 ± 0.79		27.62 ± 6.51	
PGQLGLAGPK [YDE-037]			2.88		4.98 ± 0.66	5.80 ± 0.90		36.30 ± 9.75	
CC(C)C[C@H](NC(=O)[C@H](Cc1ccccc1)NC(=O)[C@H](CC(=O)O)NC(=O)[C@H](CCC(N)=O)NC(=O)CNC(=O)[C@@H]1C[C@@H](O)CN1)C(=O)N[C@@H](C)C(=O)NCC(=O)N1CCC[C@H]1C(=O)N[C@@H](CCCCN)C(=O)O [YDE-019] (H-[Hyp]GQDFLAGPK-OH)	4.84 ± 1.39	4.52 ± 1.07	13.43	40.39 ± 12.57					did not show any significant changes
CCC(C)[C@H](NC(=O)[C@H](CCC(N)=O)NC(=O)CNC(=O)[C@@H]1C[C@@H](O)CN1)C(=O)NCC(=O)N[C@@H](CC(C)C)C(=O)N[C@@H](C)C(=O)NCC(=O)N1CCC[C@H]1C(=O)N[C@@H](CCCCN)C(=O)O (stereo partly shown) [YDE-010] (H-[Hyp]GQ[Ile(3ξ)]GLAGPK-OH)	3.42 ± 1.31	4.35 ± 1.36	4.39	49.29 ± 12.06					did not show any significant changes
